Assay: RP, Waters ACQUITY UPLC BEH C18, 50 × 2.1 mm, 1.7 µm, 35 °C, 0.25 mL/min, estimated dead time 0.44 min; A: water + 0.1% acetic acid, pH 3; B: acetonitrile; gradient (min/%B) 0/5 1.12/5 6.41/99.5 10.01/99.5
Conditions: stereoisomer not certain

Compound | LC retention time [min]
NC(Cc1ccccc1)C(=O)NC(Cc1ccccc1)C(=O)O (stereo not given) [Phe-phe] | 4
CCCCCCCCCC(=O)O [decanoic acid] | 10
CCCCCCCCCCCCCCCCC(=O)O [heptadecanoic acid] | 15
O=C(O)CCCCCCCCCCCCCCC(=O)O [hexadecanedioic acid] | 9.37
O=S(=O)([O-])Oc1c[nH]c2ccccc12.[K+] [indoxyl sulfuric acid] | 2
COCC(NC(C)=O)C(=O)NCc1ccccc1 (stereo not given) [lacosamide] | 4
CCCCCCCCCCCCCCCCCC(=O)OCC(O)COP(=O)([O-])OCC[N+](C)(C)C (stereo not given) [lysoPC(18:0/0:0)] | 11.5
O=C(O)CCCCCCCC(=O)O [nonanedioic acid] | 5
NC(=O)CCC(NC(=O)Cc1ccccc1)C(=O)O (stereo not given) [phenylacetylglutamine] | 2
NC(Cc1c[nH]c2ccccc12)C(=O)O (stereo not given) [tryptophan] | 1
